Results on three sequences are retold here after patent publication US8999931B2, “Pharmaceutical composition using gonadotropin-releasing hormone (GNRH) combined variants as immunogen” (Centro de Ingenieria Genetica y Biotecnologia, priority 2008, dated 2015).

Values joined by “and” are separate entries in the source; they are usually repeats but may differ in a detail not shown here. Equal entries are not always repeated. Where two headings read alike, the source gives them in different places.

Experiment [1] has as its system native GnRH peptide. In kind it is in vivo, Copenhagen rats. The note with it: for anti-GnRH antibodies titers: 750 μg total peptide, fortnightly s.c.
Experiment [2] relates to testicles. Briefly: Testicles weight evaluation at slaughter (100 days), treatment effect. In kind it is in vivo, Copenhagen rats. The note with it: mean testicles weight vs placebo at slaughter (100 days); healthy adult rats, 750 μg total peptide.
In experiment [3] the test system is prostate. As to the kind of experiment: Prostate weight evaluation at slaughter (100 days), treatment effect. It counts as in vivo, Copenhagen rats. Conditions: mean prostate weight vs placebo at slaughter (100 days); healthy adult rats, 750 μg total peptide.
For experiment [4], the system named is testosterone. Briefly: Testosterone levels determination / testosterone ablation after immunization. In kind it is in vivo. Conditions: oily adjuvant (Montanide type); 2 immunizations in prepuberous animals, 3 or 4 immunizations in adult animals.

In the case of “IPGVAYTSPEVAWVGGGGQHWSYPLRP (GnRHm1 bonded at its amino-terminal end to the peptide P48 of the protein P64K of Neisseria meningitidis) [P48-P64K-GnRHm1]”, the “seroconversion (anti-GnRH)” value in experiment [1] (after the first immunization, s.c., Montanide adjuvant) is 100% and 90%. The “Effect on Testicles (Etreatment=1−(Ptreatment/Pplacebo))” value in experiment [2] stood at 0.49. Also, in experiment [3], the “Effect on Prostate (Etreatment=1−(Ptreatment/Pplacebo))” value came out at 0.28.

As to “QYIKANSKFIGITELGGQ HWSYPLRPG (QYIKANSKFIGITELGGQHWSYPLRPG; GnRHm1 bonded at its amino-terminal end to epitope 830-844 of the tetanus toxoid) [TT-GnRHm1]”, the figures for the anti-GnRH antibodies titers in experiment [1] (after 75 days of the beginning of experiment) and in experiment [1] (after 100 days / at the end of the experiment) were 1/6000 and 1/12000, respectively. In addition, the “Effect on Testicles (Etreatment=1−(Ptreatment/Pplacebo))” value in experiment [2] came to 0.55. The “Effect on Prostate (Etreatment=1−(Ptreatment/Pplacebo))” value in experiment [3] is recorded as 0.42.

Turning to “QHWSYPLRPGGGQYIKANSKFIGITEL (Chemical synthesis of the peptide.GnRHm1Tox.) [GnRHm1-TT]”, the “seroconversion (anti-GnRH)” value in experiment [1] (after the fourth immunization, oily adjuvant (Montanide type)) is recorded as 90%; in experiment [1] (after the third immunization, s.c., Montanide adjuvant) it was 90%. Moreover, the “anti-GnRH response relative to TT-GnRHm1 variant” value in experiment [1] (doses equal to the TT-GnRHm1 variant) is 10 times weaker. Further, in experiment [1] (over the whole experiment (5 immunizations, 100 days)), the “highest anti-GnRH antibodies titers reached” value is recorded as 1/1000. Moreover, the testosterone ablation result in experiment [4] was “potent effect”. Besides, in experiment [2], the “Effect on Testicles (Etreatment=1−(Ptreatment/Pplacebo))” value turned out to be 0.43. Besides, in experiment [3], the “Effect on Prostate (Etreatment=1−(Ptreatment/Pplacebo))” value was 0.41.
